Assay results taken from ChEMBL document CHEMBL3769311, “The natural flavone fukugetin as a mixed-type inhibitor for human tissue kallikreins” (Bioorg Med Chem Lett, 2016).

Assays:
Kallikrein-2 [1] = biological target: T1, Kallikrein-2 (Homo sapiens, UniProt P20151); test: Mixed-type inhibition of human tissue kallikrein-2 expressed in baculovirus infected insect cells using Abz-KLRSSQ-EDDnp as substrate preincubated for 10 mins followed by substrate addition by Lineweaver-Burk plot analysis
T1 sequence (P20151 whole entry): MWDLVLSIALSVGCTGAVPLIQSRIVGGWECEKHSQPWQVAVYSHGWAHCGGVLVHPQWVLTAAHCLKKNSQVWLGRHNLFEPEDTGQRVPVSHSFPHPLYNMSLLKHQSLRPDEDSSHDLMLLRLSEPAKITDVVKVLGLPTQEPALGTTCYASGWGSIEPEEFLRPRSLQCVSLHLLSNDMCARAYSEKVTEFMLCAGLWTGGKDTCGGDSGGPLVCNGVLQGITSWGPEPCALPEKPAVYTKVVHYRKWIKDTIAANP

Kallikrein-1 [2] = biological target: T2, Kallikrein-1 (Homo sapiens, UniProt P06870); test: Inhibition of human tissue kallikrein-1 expressed in baculovirus infected insect cells using Abz-KLRSSQ-EDDnp as substrate preincubated for 10 mins followed by substrate addition by FRET assay
Kallikrein-2 [3] = biological target: T1, Kallikrein-2; test: Inhibition of human tissue kallikrein-2 expressed in baculovirus infected insect cells using Abz-KLRSSQ-EDDnp as substrate preincubated for 10 mins followed by substrate addition by FRET assay
[4] = biological target: T3, Prostate-specific antigen (Homo sapiens, UniProt P07288); test: Inhibition of human tissue kallikrein-3 expressed in baculovirus infected insect cells using Abz-KLYSSQ-EDDnp as substrate preincubated for 10 mins followed by substrate addition by FRET assay
T3 sequence (P07288 whole entry): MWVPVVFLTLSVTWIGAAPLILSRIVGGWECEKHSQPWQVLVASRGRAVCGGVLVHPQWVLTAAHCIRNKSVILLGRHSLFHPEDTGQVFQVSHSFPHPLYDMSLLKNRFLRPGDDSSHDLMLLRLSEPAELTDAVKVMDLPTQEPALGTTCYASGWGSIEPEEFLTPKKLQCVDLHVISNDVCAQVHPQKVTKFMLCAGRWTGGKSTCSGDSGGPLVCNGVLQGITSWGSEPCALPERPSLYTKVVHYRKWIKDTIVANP

Kallikrein-5 = biological target: T4, Kallikrein-5 (Homo sapiens, UniProt Q9Y337); test: Inhibition of human tissue kallikrein-5 expressed in baculovirus infected insect cells using Abz-KLRSSQ-EDDnp as substrate preincubated for 10 mins followed by substrate addition by FRET assay
T4 sequence (Q9Y337 whole entry): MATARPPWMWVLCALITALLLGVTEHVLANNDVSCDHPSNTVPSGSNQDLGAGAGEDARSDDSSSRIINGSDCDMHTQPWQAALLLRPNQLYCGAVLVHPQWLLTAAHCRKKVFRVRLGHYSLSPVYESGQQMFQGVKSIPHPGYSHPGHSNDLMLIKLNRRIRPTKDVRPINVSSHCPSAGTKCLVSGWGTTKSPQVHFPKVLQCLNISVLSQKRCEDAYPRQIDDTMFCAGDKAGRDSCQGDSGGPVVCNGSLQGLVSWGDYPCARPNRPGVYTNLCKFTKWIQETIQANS

Kallikrein-6 = Kallikrein-6 (Homo sapiens, UniProt Q92876); test: Inhibition of human tissue kallikrein-6 expressed in baculovirus infected insect cells using Abz-KLRSSQ-EDDnp as substrate preincubated for 10 mins followed by substrate addition by FRET assay
Kallikrein-7 = Kallikrein-7 (Homo sapiens, UniProt P49862); test: Inhibition of human tissue kallikrein-7 expressed in baculovirus infected insect cells using Abz-KLYSSQ-EDDnp as substrate preincubated for 10 mins followed by substrate addition by FRET assay
Kallikrein-1 [5] = biological target: T2, Kallikrein-1; test: Mixed-type inhibition of human tissue kallikrein-1 expressed in baculovirus infected insect cells using Abz-KLRSSQ-EDDnp as substrate preincubated for 10 mins followed by substrate addition by Lineweaver-Burk plot analysis

T2 sequence (P06870 whole entry): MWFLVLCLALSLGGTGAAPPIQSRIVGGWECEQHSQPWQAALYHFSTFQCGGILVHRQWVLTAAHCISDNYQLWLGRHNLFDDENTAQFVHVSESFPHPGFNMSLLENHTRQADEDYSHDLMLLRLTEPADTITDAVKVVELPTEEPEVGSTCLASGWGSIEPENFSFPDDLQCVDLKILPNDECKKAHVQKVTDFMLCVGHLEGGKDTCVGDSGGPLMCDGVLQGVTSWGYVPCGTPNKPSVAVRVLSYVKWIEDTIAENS
Kallikrein-7, sequence (P49862 whole entry): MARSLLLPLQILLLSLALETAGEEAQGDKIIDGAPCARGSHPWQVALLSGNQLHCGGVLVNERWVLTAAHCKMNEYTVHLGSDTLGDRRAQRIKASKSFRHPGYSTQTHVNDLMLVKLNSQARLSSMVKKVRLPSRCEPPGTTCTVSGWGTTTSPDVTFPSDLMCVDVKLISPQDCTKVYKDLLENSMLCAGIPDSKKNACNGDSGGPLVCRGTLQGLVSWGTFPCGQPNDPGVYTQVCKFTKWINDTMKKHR

`O=C1CC(c2ccc(O)c(O)c2)Oc2c1c(O)cc(O)c2[C@@H]1C(=O)c2c(O)cc(O)cc2O[C@H]1c1ccc(O)cc1` (stereo partly drawn) [FUKUGETIN] gave a Ki (Kallikrein-2 [1]) of 1.6 µM, an IC50 (Kallikrein-1 [2]) of 5.7 µM and an IC50 (Kallikrein-2 [3]) of 3.2 µM. For the same compound, the IC50 [4] was 13 µM, the IC50 (Kallikrein-5) was 12.5 µM and the IC50 (Kallikrein-6) was 13.5 µM. For the same compound, the IC50 (Kallikrein-7) was 15 µM and the Ki (Kallikrein-1 [5]) was 3.6 µM.
